{
  "source": "patent US20110053884A1",
  "about": "“POTENT COMBINATIONS OF […] DRUGS THAT SELECT FOR THE K65R MUTATION IN THE HIV POLYMERASE” (priority 2007, published 2011)",
  "key": {"TK1 [1]": {"target": "T1, TK1 (Homo sapiens, UniProt P04183)", "T1 sequence (P04183 1-234)": "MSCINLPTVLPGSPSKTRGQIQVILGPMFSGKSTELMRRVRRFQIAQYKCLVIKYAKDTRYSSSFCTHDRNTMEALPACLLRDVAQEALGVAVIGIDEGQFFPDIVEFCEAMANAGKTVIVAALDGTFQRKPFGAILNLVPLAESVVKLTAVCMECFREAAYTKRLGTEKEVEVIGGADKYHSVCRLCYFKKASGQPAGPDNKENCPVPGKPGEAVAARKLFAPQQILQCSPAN", "details": "concentration at 50% of maximal metabolism rate; read-out: Km versus TK1; cited from earlier work"}, "[2]": {"details": "Day 20; rank order of treatment groups (mg bid)", "description": "Twenty-four subjects were enrolled [placebo (n=2), AZT 200 mg (n=2), AZT 300 mg (n=2), DAPD 500 mg (n=6), DAPD/AZT 200 mg (n=6), and DAPD/AZT 300 mg (n=6)] and treated for 10 days. Hematological indices including hemoglobin (g/dl) and mean corpuscular volume (MCV, femtoliters) were measured at Screening, Day 1 prior to receiving treatment and Days 5, 10 and 20."}, "TK1 [3]": {"target": "T1, TK1", "assay": "Phosphorylation of AZT to AZT-MP by thymidine kinase", "assay_type": "biochemical", "details": "activated PBM cells", "text": "(§1) The initial intracellular phosphorylation step of AZT is catalyzed by thymidine kinase (TK). The most likely enzyme for monophosphorylation to AZT-MP is TK1, which is located primarily in the cytosol of cells in S-phase. […] Since the initial phosphorylation step of AZT to AZT-MP remains approximately linear with dose (5, 22), the Vmax,TK1 was assumed constant between individuals. […] The maximal rates of phosphorylation to AZT-MP and AZT-DP (Vmax,AZT-MP and Vmax,ThymK, respectively) in activated PBM cells were calculated using previously published enzyme kinetics measurements from a cohort of HIV-1 infected individuals who were not previously treated with AZT (36). […] The calculation assumed a volume of 0.21 μl/10^6, corresponding to a protein content of 0.12 mg (3, 33). The final phosphorylation step to active AZT-TP is catalyzed by nucleoside diphosphate kinase and is not rate limiting under physiological conditions. […] Therefore, the conversion rate of AZT-DP to AZT-TP (KDP,TP) was also assumed to be 0.28 h^−1. The assumed distributions for the rate constants describing the cellular phosphorylation and dephosphorylation of AZT are contained in Table 2."}, "HIV": {"tested_on": "HIV", "assay": "Randomized double blind placebo controlled study, HIV RNA viral load over 10 days of treatment", "assay_type": "in vivo, human", "description": "(§2) Subjects with HIV RNA viral load (VL)≧5,000 copies/mL were enrolled and randomized 1:1:1 to DAPD 500 mg bid: DAPD 500 mg with AZT 300 mg bid: DAPD 500 mg with AZT 200 mg bid for 10 days. In each arm, subjects were randomized 3:1 to DAPD: placebo. VL was determined daily."}, "HIV-1": {"tested_on": "HIV-1", "details": "incubation up to week 28; cited from earlier work"}, "thymidylate kinase [4]": {"target": "T2, thymidylate kinase (Homo sapiens, UniProt P23919)", "T2 sequence (P23919 1-212)": "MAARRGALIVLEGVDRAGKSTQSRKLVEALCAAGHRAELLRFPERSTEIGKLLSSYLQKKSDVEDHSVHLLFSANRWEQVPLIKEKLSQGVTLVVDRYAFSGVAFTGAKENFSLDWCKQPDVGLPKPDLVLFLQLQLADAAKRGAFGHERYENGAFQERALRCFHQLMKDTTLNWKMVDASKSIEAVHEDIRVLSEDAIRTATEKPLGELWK", "assay": "Phosphorylation of AZT-MP to AZT-DP by thymidylate kinase", "assay_type": "biochemical", "details": "activated PBM cells of HIV-1 infected individuals not previously treated with AZT; SD of log-transformed values 0.89", "text": "as §1"}, "[5]": {"details": "single dose, intravenous and oral, HIV-1 infected individuals; cited from earlier work"}, "PBM cells": {"tested_on": "PBM cells", "details": "cited from earlier work; for Rate of dephosphorylation: in vivo"}, "thymidylate kinase [6]": {"target": "T2, thymidylate kinase", "details": "cited from earlier work; for Km: substrate AZT-MP, read-out: Km versus thymidylate kinase (Km,ThmK)"}, "[7]": {"target": "wild-type HIV-1 reverse transcriptase (Human immunodeficiency virus type 1 group M subtype B, UniProt P03366)", "details": "cited from earlier work"}, "[8]": {"assay": "Tolerability in the DAPD/AZT clinical study", "assay_type": "in vivo, human", "details": "10 days of treatment, HIV-infected subjects", "description": "as §2"}, "[9]": {"details": "cited from earlier work"}},
  "note": "pIC50: −log10 of the molar value.",
  "data": [
    {"smiles": "Cc1cn([C@H]2C[C@H](N=[N+]=[N-])[C@@H](CO)O2)c(=O)[nH]c1=O", "note": "[AZT, 3′-azido-3′-deoxythymidine]", "values": [
      {"measurement": "Km", "setting": "TK1 [1]", "result": 0.6, "unit": "µM"},
      {"measurement": "Trend in decrease in hemoglobin from Baseline", "setting": "[2]", "result": "DAPD/AZT 300≧AZT 300≧DAPD/AZT 200>AZT 200>DAPD>placebo"},
      {"measurement": "Trend in increase in MCV from Baseline", "setting": "[2]", "result": "DAPD/AZT 300>AZT 300>DAPD/AZT 200>AZT 200>placebo>DAPD"},
      {"measurement": "Vmax,TK1, maximal rate of phosphorylation to AZT-MP", "setting": "TK1 [3]", "result": 0.86, "unit": "μmol/l per hr"},
      {"measurement": "Mean VL ± SD from baseline", "setting": "HIV; Day 9, AZT 200 mg bid alone", "result": "−0.80", "unit": "log10 copies/mL"},
      {"measurement": "Mean VL ± SD from baseline", "setting": "HIV; Day 9, AZT 300 mg bid alone", "result": "−0.35", "unit": "log10 copies/mL"},
      {"measurement": "Mean VL ± SD from baseline", "setting": "HIV; Day 10, AZT 200 mg bid alone", "result": "−0.65", "unit": "log10 copies/mL"},
      {"measurement": "Mean VL ± SD from baseline", "setting": "HIV; Day 10, AZT 300 mg bid alone", "result": "−0.45", "unit": "log10 copies/mL"},
      {"measurement": "Mean VL ± SD from baseline", "setting": "HIV; Day 11, AZT 200 mg bid alone", "result": "−0.70", "unit": "log10 copies/mL"},
      {"measurement": "Mean VL ± SD from baseline", "setting": "HIV; Day 11, AZT 300 mg bid alone", "result": "−0.60", "unit": "log10 copies/mL"},
      {"measurement": "Drug resistant mutations selected in vitro", "setting": "HIV-1", "result": "a mixture of K70K/R mutations at week 25"},
      {"measurement": "Vmax,ThymK, median", "setting": "thymidylate kinase [4]", "result": 0.13, "unit": "μmol/l per hr"},
      {"measurement": "Systemic clearance (Cl)", "setting": "[5]", "result": "18.3 to 25", "unit": "mL/min/kg"},
      {"measurement": "Volume of distribution (Vss)", "setting": "[5]", "result": "1.3 to 1.4", "unit": "L/kg"},
      {"measurement": "Accumulation of AZT nucleotides, stimulated versus resting PBM cells", "setting": "PBM cells", "result": "60 to 150", "unit": "times"},
      {"measurement": "Rate of dephosphorylation", "setting": "PBM cells", "result": 0.28, "unit": "h⁻¹"},
      {"measurement": "Km", "setting": "thymidylate kinase [6]", "result": 12, "unit": "µM"}
    ]},
    {"smiles": "Cc1cn([C@H]2C[C@H](N=[N+]=[N-])[C@@H](COP(=O)(O)OP(=O)(O)O)O2)c(=O)[nH]c1=O", "note": "[AZT-DP, AZT-diphosphate]", "values": [
      {"measurement": "Rate of dephosphorylation", "setting": "PBM cells", "result": 0.28, "unit": "h⁻¹"}
    ]},
    {"smiles": "Cc1cn([C@H]2C[C@H](N=[N+]=[N-])[C@@H](COP(=O)(O)O)O2)c(=O)[nH]c1=O", "note": "[AZT-MP, zidovudine-monophosphate]", "values": [
      {"measurement": "Vmax,ThymK, median", "setting": "thymidylate kinase [4]", "result": 0.13, "unit": "μmol/l per hr"},
      {"measurement": "Rate of dephosphorylation", "setting": "PBM cells", "result": 0.28, "unit": "h⁻¹"},
      {"measurement": "Km", "setting": "thymidylate kinase [6]", "result": 12, "unit": "µM"},
      {"measurement": "Vmax,AZT-MP as share of the Vmax versus thymidine-MP", "setting": "thymidylate kinase [6]; thymidylate kinase", "result": 0.3, "unit": "%"}
    ]},
    {"smiles": "Cc1cn([C@H]2C[C@H](N=[N+]=[N-])[C@@H](CO[P@](=O)(O)O[P@](=O)(O)OP(=O)(O)O)O2)c(=O)[nH]c1=O", "note": "[AZT-TP, zidovudine-triphosphate]", "values": [
      {"measurement": "pIC50", "setting": "[7]", "result": "~7.46"},
      {"measurement": "Rate of dephosphorylation", "setting": "PBM cells", "result": 0.28, "unit": "h⁻¹"}
    ]},
    {"smiles": "Nc1nc(N)c2ncn([C@H]3CO[C@@H](CO)O3)c2n1", "note": "[DAPD, (−)-β-D-2,6-diaminopurine dioxolane]", "values": [
      {"measurement": "Trend in decrease in hemoglobin from Baseline", "setting": "[2]", "result": "DAPD/AZT 300≧AZT 300≧DAPD/AZT 200>AZT 200>DAPD>placebo"},
      {"measurement": "Trend in increase in MCV from Baseline", "setting": "[2]", "result": "DAPD/AZT 300>AZT 300>DAPD/AZT 200>AZT 200>placebo>DAPD"},
      {"measurement": "Mean VL ± SD from baseline", "setting": "HIV; Day 9, DAPD 500 mg bid alone", "result": "−0.83 ± 0.61", "unit": "log10 copies/mL"},
      {"measurement": "Mean VL ± SD from baseline", "setting": "HIV; Day 10, DAPD 500 mg bid alone", "result": "−1.07 ± 0.80", "unit": "log10 copies/mL"},
      {"measurement": "Mean VL ± SD from baseline", "setting": "HIV; Day 11, DAPD 500 mg bid alone", "result": "−1.03 ± 0.59", "unit": "log10 copies/mL"},
      {"measurement": "Drug resistant mutations selected in vitro", "setting": "HIV-1", "result": "a mixture of K65R and L74V at week 20"},
      {"measurement": "Tolerability", "setting": "[8]", "result": "well tolerated"}
    ]},
    {"smiles": "Nc1nc2c(ncn2[C@H]2CO[C@@H](CO)O2)c(=O)[nH]1", "note": "[DXG, beta-D-(2R,4R)-1,3-dioxolane guanosine]", "values": [
      {"measurement": "Cellular triphosphate half-life", "setting": "[9]", "result": "~9.5", "unit": "h"}
    ]},
    {"smiles": "C[C@H](Cn1cnc2c(N)ncnc21)OCP(=O)(O)O", "note": "[tenofovir, 9-R-2-phosphonomethoxypropyl adenine]", "values": [
      {"measurement": "Cellular triphosphate half-life", "setting": "[9]", "result": "> 60", "unit": "h"}
    ]}
  ]
}
